Measured values from PMC7926937, “Suramin Targets the Conserved Ligand-Binding Pocket of Human Raf1 Kinase Inhibitory Protein” (Molecules, 2021).
Positions count from the first letter of the chain named. pIC50, pKd: −log10 of the molar value. Where two headings read alike, the source gives them in different places.

Key:
[1] = target: T1, hRKIP (Homo sapiens, UniProt P30086); test: BLI assay of ligand binding to wild-type hRKIP
T1 construct: made in house; host or cells: E. coli
Experimental: (§1) Both unlabeled and ^15N-labeled hRKIP proteins were prepared as described previously. Eight hRKIP mutants (P74L, Y81A, S109A, P111L, P112L, K113A, W173A, and Y181A) were generated by site-directed mutagenesis using the vector of pReceiver-B01a-RKIP as the template and confirmed by DNA sequencing. All protein purifications were performed at 4 °C. Protein purities were verified by polyacrylamide gel electrophoresis, and protein concentrations were measured by NanoVue (GE Heathcare Co, Boston, MA, USA).
(§2) The interaction between hRKIP and suramin was detected by using the ForteBio Octet Red system (ForteBio, Inc, San Francisco, CA, USA). The wild-type His-tagged hRKIP protein or its mutant was immobilized onto NTA reactive biosensors, and the captured biosensors were individually dipped into the wells containing various concentrations of suramin (25, 50, 100, 200, and 400 μM). The association at each suramin concentration was detected for 900 s, while the dissociation was monitored for 1800 s. The sensors loading hRKIP without suramin were used as controls to correct baseline drifts. The wells containing various concentrations of suramin without loading protein served as references. The association and dissociation responses were corrected and processed using Octet Data Analysis Software (Version 7.0, ForteBio, Inc, San Francisco, CA, USA). The interferometry data were fitted using the 1:1 Langmuir binding model.

[2] = target: T1, hRKIP; set-up: method as in PMID 30137201; conditions: PE binding to hRKIP ref 34; cited from earlier work
[3] = system: HEK293T cell; test: MTS experiments on HEK293T cells; type: cell-based; conditions: Homo sapiens, HEK-293T
[4] = target: T2, hRKIP Y181A mutant (Homo sapiens, UniProt P30086, Y181A); test: BLI assay of suramin binding to hRKIP mutant Y181A
T2 construct: made in house; host or cells: E. coli
T2 sequence (P30086 1-187 Y181A): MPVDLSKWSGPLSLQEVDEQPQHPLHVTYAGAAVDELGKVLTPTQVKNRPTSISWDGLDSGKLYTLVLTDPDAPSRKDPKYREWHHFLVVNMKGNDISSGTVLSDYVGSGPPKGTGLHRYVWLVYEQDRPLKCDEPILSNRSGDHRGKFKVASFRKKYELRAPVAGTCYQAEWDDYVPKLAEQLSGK
Experimental: as §1, §2

[5] = target: T3, hRKIP W173A mutant (Homo sapiens, UniProt P30086, W173A); test: BLI assay of suramin binding to hRKIP mutant W173A
T3 construct: made in house; host or cells: E. coli
T3 sequence (P30086 1-187 W173A): T2 sequence (P30086 1-187 Y181A) with W173A, A181Y
Experimental: as §1, §2

[6] = system: phosphorylation level of p-ERK in HEK293T cell; test: ERK phosphorylation (Western blot) in HEK293T cells; type: cell-based, human; conditions: 160 μM suramin
Experimental: (§3) Human HEK293T cells were used as control group. HEK293T cells were first transfected with the exogenous hRKIP gene (the hRKIP-treated group), then the hRKIP transfected cells were serum starved overnight (10 h) and then incubated with 160 μM suramin for 30 min before EGF stimulation (the hRKIP-suramin-treated group). The transfection process was performed as following: 4 μg of pcDNA3.0-hRKIP was mixed with 75 μL lipotap (Beyotime, China), and the mixture was incubated with HEK293T cell in the dulbecco’s modified eagle medium (DMEM) with 100 units/mL penicillin (Sagon, Shanghai, China), 100 μg/mL streptomycin (Sagon, Shanghai, China) and 10% fetal bovine serum (Hyclone, Logan, UT, USA) for 6 h. Then the lipotap-DNA mixture was removed, and the transfected cell was further cultured in fresh medium. For all the three groups, the cells were cultured in DMEM supplemented with serum and […] at 37 °C. At 70% confluency, 10 ng/mL EGF was used to stimulate the Ras/Raf/MEK/ERK signal pathway for 5 min. The reaction was stopped by phosphate-buffered saline. […]
(§4) Cellular assay data are presented as mean ± standard deviation (SD). […] Statistical significances were determined using Student’s t-test. p < 0.05 was considered statistically significant.

[7] = target: T4, hRKIP S109A mutant (Homo sapiens, UniProt P30086, S109A); test: BLI assay of suramin binding to hRKIP mutant S109A
T4 construct: made in house; host or cells: E. coli
T4 sequence (P30086 1-187 S109A): T2 sequence (P30086 1-187 Y181A) with S109A, A181Y
Experimental: as §1, §2

[8] = target: T5, hRKIP P74L mutant (Homo sapiens, UniProt P30086, P74L); test: BLI assay of suramin binding to hRKIP mutant P74L
T5 construct: made in house; host or cells: E. coli
T5 sequence (P30086 1-187 P74L): T2 sequence (P30086 1-187 Y181A) with P74L, A181Y
Experimental: as §1, §2

[9] = target: T6, hRKIP P112L mutant (Homo sapiens, UniProt P30086, P112L); test: BLI assay of suramin binding to hRKIP mutant P112L
T6 construct: made in house; host or cells: E. coli
T6 sequence (P30086 1-187 P112L): T2 sequence (P30086 1-187 Y181A) with P112L, A181Y
Experimental: as §1, §2

[10] = system: hRKIP-mediated Ras/Raf1/MEK/ERK signal pathway; test: ERK phosphorylation (Western blot) in hRKIP-transfected HEK293T cells; type: cell-based, human; conditions: 160 µM suramin, 30 min before EGF stimulation, compared with no suramin treatment
Experimental: as §3, §4

[11] = target: T7, hRKIP Y81A mutant (Homo sapiens, UniProt P30086, Y81A); test: BLI assay of suramin binding to hRKIP mutant Y81A
T7 construct: made in house; host or cells: E. coli
T7 sequence (P30086 1-187 Y81A): T2 sequence (P30086 1-187 Y181A) with Y81A, A181Y
Experimental: as §1, §2

[12] = system: HEK293T cells transfected with hRKIP; test: Viability of HEK293T cells transfected with hRKIP; type: cell-based, human
Experimental: We further explored the effects of suramin treatment on hRKIP-mediated Ras/Raf1/MEK/ERK signal pathway by detecting the phosphorylation level of ERK, which could only be activated by MEK [37]. Principally, hRKIP binding with Raf1 inhibits the phosphorylation of Raf1, thereby blocking the following ERK phosphorylation and downregulating the MAPK pathway. […] The transfected cells were then treated with 160 μM suramin. The suramin concentration was experimentally determined as the maximal tolerant concentration for cell viability (Figure 4c), which was consistent with that used usually in clinical patients. […] As a result, the free Raf1 kinase was phosphorylated and the Ras/Raf1/MEK/ERK pathway was promoted with an enhanced phosphorylation level of the following ERK kinase.
Figure 4 Effects of suramin treatment on hRKIP-mediated Ras/Raf1/MEK/ERK pathway in HEK293 cells (a,b) Western blot analysis for the effect of suramin treatment on hRKIP-mediated ERK phosphorylation;(c) Effect of suramin treatment on viabilities of HEK293T cells transfected with hRKIP. (d,e) Western blot analysis for the effect of suramin on the ERK phosphorylation of HEK293T cell. * p <0.1; *** p <0.001; **** p <0.0001, n = 3 for each group.

[13] = target: T8, hRKIP K113A mutant (Homo sapiens, UniProt P30086, K113A); test: BLI assay of suramin binding to hRKIP mutant K113A
T8 construct: made in house; host or cells: E. coli
T8 sequence (P30086 1-187 K113A): T2 sequence (P30086 1-187 Y181A) with K113A, A181Y
Experimental: as §1, §2

T1 sequence (P30086 whole entry): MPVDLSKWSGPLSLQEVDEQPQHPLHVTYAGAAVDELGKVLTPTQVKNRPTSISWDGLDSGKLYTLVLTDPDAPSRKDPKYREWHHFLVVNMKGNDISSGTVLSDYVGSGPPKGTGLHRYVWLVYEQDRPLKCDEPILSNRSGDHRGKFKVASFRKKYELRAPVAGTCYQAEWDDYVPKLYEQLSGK

NCCOP(=O)(O)O [PE, oO-phosphorylethanolamine]
kon ([1]; BLI, wild-type RKIP): 3.0 M⁻¹ s⁻¹ | dissociation rate (koff) ([1]; BLI, wild-type hRKIP): 0.0264 s⁻¹ | pKd [2]: 2.06

Cc1ccc(C(=O)Nc2ccc(S(=O)(=O)O)c3cc(S(=O)(=O)O)cc(S(=O)(=O)O)c23)cc1NC(=O)c1cccc(NC(=O)Nc2cccc(C(=O)Nc3cc(C(=O)Nc4ccc(S(=O)(=O)O)c5cc(S(=O)(=O)O)cc(S(=O)(=O)O)c45)ccc3C)c2)c1 [suramin, Suramin]
pIC50 [3]: 3.32 | pKd ([4]; Y181A mutant): 3.15 | kobs ([4]; Y181A mutant): 0.000177 s⁻¹ | koff ([4]; Y181A mutant): 0.000156 s⁻¹ | kon ([4]; Y181A mutant): 0.22 M⁻¹ s⁻¹ | decrease of affinity of suramin relative to hRKIP ([4]; Y181A mutant vs wild type): more than 75% | pKd [5]: 4.11 | kobs [5]: 0.000553 s⁻¹ | koff [5]: 0.000241 s⁻¹ | kon [5]: 3.12 M⁻¹ s⁻¹ | enhancement of phosphorylation level of p-ERK [6]: around 48% | pKd ([7]; S109A mutant): 4.59 | kobs ([7]; S109A mutant): 0.00295 s⁻¹ | koff ([7]; S109A mutant): 0.00018 s⁻¹ | kon ([7]; S109A mutant): 6.93 M⁻¹ s⁻¹ | decrease of binding affinity of suramin relative to hRKIP ([7]; S109A mutant vs wild type): around 10% | pKd ([8]; P74L mutant): 4.43 | kobs ([8]; P74L mutant): 0.000367 s⁻¹ | koff ([8]; P74L mutant): 0.000275 s⁻¹ | kon ([8]; P74L mutant): 7.39 M⁻¹ s⁻¹ | decrease of affinity of suramin relative to hRKIP ([8]; P74L mutant vs wild type): more than 30% | pKd ([9]; P112L mutant): 4.69 | kobs ([9]; P112L mutant): 0.00037 s⁻¹ | koff ([9]; P112L mutant): 0.000166 s⁻¹ | kon ([9]; P112L mutant): 8.14 M⁻¹ s⁻¹ | change of affinity of suramin relative to hRKIP ([9]; P112L mutant vs wild type): slightly increased affinity | increase of ERK phosphorylation level [10]: around 3 times | pKd ([11]; Y81A mutant): 4.53 | kobs ([11]; Y81A mutant): 0.000291 s⁻¹ | koff ([11]; Y81A mutant): 0.000158 s⁻¹ | kon ([11]; Y81A mutant): 5.31 M⁻¹ s⁻¹ | decrease of affinity of suramin relative to hRKIP ([11]; Y81A mutant vs wild type): around 20% | maximal tolerant concentration for cell viability [12]: 160 µM | kobs ([1]; BLI, wild-type RKIP): 0.00368 s⁻¹ | pKd ([1]; BLI, wild-type RKIP, 1:1 Langmuir binding model): 4.62 | koff ([1]; BLI, wild-type RKIP, read-out: koff): 0.000207 s⁻¹ | kon ([1]; BLI, wild-type RKIP, read-out: kon): 8.69 M⁻¹ s⁻¹ | koff ([1]; BLI, wild-type hRKIP, read-out: dissociation rate (koff)): 0.0002 s⁻¹ | higher affinity for binding to hRKIP compared with PE ([1]; ratio of KD values, PE as native substrate): about 370 fold | pKd [13]: 4.06 | kobs [13]: 0.00038 s⁻¹ | koff [13]: 0.000295 s⁻¹ | kon [13]: 3.38 M⁻¹ s⁻¹
